The values that follow come from patent publication US5532242A, “Piperazine derivatives as 5-HT receptors antagonists” (John Wyeth & Brother, Limited, priority 1992, dated 1996).

Test [1] concerns the target T1, 5-HT1A receptor (Rattus norvegicus, UniProt P19327).
T1 construct: rat hippocampal membrane homogenate; from tissue; host or cells: rat hippocampal membrane homogenate
T1 sequence (P19327 1-422): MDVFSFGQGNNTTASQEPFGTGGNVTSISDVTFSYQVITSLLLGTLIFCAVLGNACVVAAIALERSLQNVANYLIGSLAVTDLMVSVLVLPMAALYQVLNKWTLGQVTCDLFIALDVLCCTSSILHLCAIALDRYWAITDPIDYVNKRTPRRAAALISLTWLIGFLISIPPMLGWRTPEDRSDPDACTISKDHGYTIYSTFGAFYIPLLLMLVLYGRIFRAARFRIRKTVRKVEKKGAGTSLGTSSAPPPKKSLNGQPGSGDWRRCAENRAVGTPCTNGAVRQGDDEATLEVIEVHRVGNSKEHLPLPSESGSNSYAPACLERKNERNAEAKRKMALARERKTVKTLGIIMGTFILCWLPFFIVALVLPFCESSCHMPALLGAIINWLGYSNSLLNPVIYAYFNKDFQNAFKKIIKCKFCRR
Description: 5-HT1A receptor binding activity in rat hippocampal membrane homogenate. As to the method: The compounds of the invention were tested for 5-HT1A receptor binding activity in rat hippocampal membrane homogenate by the method of B S Alexander and M D Wood, J Pharm Pharmacol, 1988, 40, 888-891.

The target of test [2] is T2, 5-HT1A receptor (Cavia porcellus, UniProt A0A286Y074).
T2 construct: guinea-pig ileum in vitro; from tissue; host or cells: guinea-pig ileum
T2 sequence (A0A286Y074 1-421): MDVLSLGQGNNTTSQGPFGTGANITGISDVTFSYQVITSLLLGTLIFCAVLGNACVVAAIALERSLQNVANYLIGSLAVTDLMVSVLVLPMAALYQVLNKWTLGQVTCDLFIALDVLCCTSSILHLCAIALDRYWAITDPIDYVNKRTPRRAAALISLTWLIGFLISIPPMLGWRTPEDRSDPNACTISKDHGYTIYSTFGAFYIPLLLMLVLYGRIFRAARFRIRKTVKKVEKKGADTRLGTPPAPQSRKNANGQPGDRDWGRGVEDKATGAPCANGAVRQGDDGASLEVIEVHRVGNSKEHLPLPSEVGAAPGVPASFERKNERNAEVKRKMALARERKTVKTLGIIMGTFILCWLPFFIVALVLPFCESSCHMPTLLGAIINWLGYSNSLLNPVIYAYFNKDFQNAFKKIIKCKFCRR
Description: 5-HT1A receptor antagonism: antagonism of 5-carboxamidotryptamine in the guinea-pig ileum in vitro. The settings on record: read-out: pA2 (converted). As to the method:
The compounds are tested for 5-HT1A receptor antagonism activity in a test involving the antagonism of 5-carboxamidotryptamine in the guinea-pig ileum in vitro (based upon the procedure of Fozard et al, Br J Pharmac, 1985, 86, 601P ).

As a reminder, the IC50 is the point on the concentration scale where inhibition reaches its midpoint. The low end stands for inhibition by little substance, the high end for a need for much substance.

As for `COc1ccccc1N1CCN(CCN(C(=O)C2CCCCC2)c2ccccc2)CC1` [Example 2, N-(2-(4-(2-Methoxyphenyl)piperazin-1-yl)ethyl)-N-phenylcyclohexanecarboxamide], on 5-HT1A receptor [1], the IC50 was found to be 4 nM. The Kb on 5-HT1A receptor [2] was 6.31 nM.
